Reference: ChEMBL document CHEMBL1147610, “Orally active PDE4 inhibitors with therapeutic potential” (Bioorg Med Chem Lett, 2004)

Tests used:
[1] = biological target: T1, Phosphodiesterase 4 (Homo sapiens, UniProt P27815+Q08499+Q07343+Q08493); test: Inhibition of PDE4 from U937 monocytic cells; format: cell-based; conditions: u-937
[2] = test system: Rattus norvegicus; test: Inhibition of LPS-induced TNF-alpha production in rats 0.5 hr after oral dose; format: functional; conditions: for ED50: read-out: ID50 (the source's name)
[3] = species: Homo sapiens; test: Inhibition of LPS induced TNF-alpha production in human whole blood; format: functional; conditions: read-out: ID50 (the source's name)
[4] = species: Rattus norvegicus; test: (§1) Inhibition of gastric emptying in rats; format: functional; conditions: Stomach, read-out: ID50 (the source's name)
[5] = test system: Cavia porcellus; test: Inhibition of SRS-A-mediated bronchoconstriction and airway microvascular leakage in sensitized guinea pigs […] 1 hr prio to challenge; format: functional; conditions: Lung, route oral, read-out: ID50 (the source's name)
[6] = species: Rattus norvegicus; test: as §1; format: functional, Stomach
[7] = biological target: T1, Phosphodiesterase 4; test: Inhibition of PDE4 (Phosphodiesterase 4) from U937 cells; format: cell-based; conditions: U-937, concentration not given here

Row | Structure (SMILES) | IC50 [1] | ED50 [2] | Inhibition [2] | further results
1 | COc1ccc([C@]2(C#N)C[C@H]3C[C@@H](C(=O)O)C[C@H]3C2)cc1OC1Cc2ccccc2C1 | 1.3 nM | 1.7 mg/kg | – | –
2 | COc1ccc([C@]2(C#N)C[C@H]3C[C@@H](C(=O)NO)C[C@H]3C2)cc1OC1Cc2ccccc2C1 | 0.85 nM | – | 17% | –
3 | COc1ccc([C@]2(C#N)C[C@H]3C[C@@H](C(=O)NO)C[C@H]3C2)cc1OCC1CC1 | 29 nM | 3 mg/kg | – | –
4 | COc1ccc([C@]2(C#N)C[C@H]3C[C@@H](C(=O)NO)C[C@H]3C2)cc1OC1CCCC1 | 9.7 nM | – | 52% | –
5 | COc1ccc([C@]2(C#N)C[C@H]3C[C@@H](C(=O)NO)C[C@H]3C2)cc1OC | 62 nM | – | 55% | –
6 | COc1ccc([C@@]2(C#N)C[C@H]3C[C@@H](C(=O)O)C[C@H]3C2)cc1OC1CCCC1 | > 300 nM | – | – | –
7 | COc1ccc([C@]2(C#N)C[C@H]3C[C@H](C(=O)O)C[C@H]3C2)cc1OC1CCCC1 | 150 nM | 3.8 mg/kg | – | –
8 | CCOc1cc([C@]2(C#N)C[C@H]3C[C@@H](C(=O)O)C[C@H]3C2)ccc1OC | 26 nM | 2.9 mg/kg | – | IC50 [3]: 5800 nM; ED50 [4]: 17 mg/kg
9 | COc1ccc([C@]2(C#N)C[C@H]3C[C@@H](C(=O)NO)C[C@H]3C2)cc1OC(C)C | 12 nM | – | 47% | –
10 | COc1ccc([C@]2(C#N)C[C@H]3C[C@@H](C(=O)O)C[C@H]3C2)cc1OCC1CC1 | 100 nM | – | – | –
11 | COc1ccc([C@]2(C#N)CC[C@@H](C(=O)O)CC2)cc1OC1CCCC1 [CILOMILAST] | – | 1.7 mg/kg | – | ED50 [5]: 4.5 mg/kg; IC50 [3]: 18000 nM; ED50 [4]: 5.7 mg/kg
12 | COc1ccc([C@]2(C#N)C[C@H]3C[C@@H](C(=O)O)C[C@H]3C2)cc1OC | 160 nM | – | – | –
13 | COc1ccc([C@]2(C#N)C[C@H]3C[C@@H](C(=O)O)C[C@H]3C2)cc1OC(C)C | 62 nM | – | 57% | –
14 | COc1ccc([C@@]2(C#N)C[C@H]3C[C@H](C(=O)O)C[C@H]3C2)cc1OC1CCCC1 | > 300 nM | – | – | –
15 | COc1ccc([C@]2(C#N)C[C@H]3C[C@@H](C(=O)O)C[C@H]3C2)cc1OC1CCCC1 | 9 nM | 0.4 mg/kg | – | ED50 [5]: 9.6 mg/kg; IC50 [3]: 21000 nM; Inhibition [6]: 73%
16 | CCOc1cc([C@]2(C#N)C[C@H]3C[C@@H](C(=O)NO)C[C@H]3C2)ccc1OC | – | 1.8 mg/kg | – | ED50 [5]: 5 mg/kg; IC50 [3]: 800 nM; inhibition [7]: 56%; ED50 [4]: 12 mg/kg
